“Also recorded” adds a separate entry of the source.
Key:
[1] = tested on: homologous recombination (HR); details: via inhibition of ATM kinase / p53 ser-15 phosphorylation; cited from earlier work
[2] = tested on: α-galactosidase A (GLA) activity in Fabry's cell line DMN-1; test: GLA activity in Fabry's cells after ODSA; format: cell-based, human
From the text: Cell line DMN-1, a human fibroblast cell line derived from a human patient with Fabry's disease, is obtained from the National Institutes of Health (NIH). These cells are used to measure the efficiency of correction of a mutant allele of α-galactosidase A (GLA) using methods of the present invention. The specific disease-causing mutation in the Fabry's cell line used herein is A143P, caused by a G→C mutation in the gene. See Branton et al., Medicine (Baltimore) (2002) 81(2): 122-38.
All four oligonucleotides are used to effect ODSA substantially as described in Example 1, with the exception that cells are transfected with oligonucleotides, rather than electroporated. Oligos are added at 5 μg, 10 μg or 30 μg per reaction. After ODSA is performed, cells are cultured and assayed for GLA activity according to the method of Brady, as described in Medin et al., Proc. Natl. Acad. Sci. (USA) (1996) 93:7917-22, the disclosure of which is incorporated herein by reference in its entirety. The GLA activity is used as a measure of gene correction by comparing the activities in treated versus untreated cultures. The correction efficiency is subsequently confirmed by sequencing of the locus of mutation in a number of treated cells.
[…] Unlike the experiments involving correction of eGFP in DLD-1-1 cells described in Example 1, however, certain of the agents (VPA, caffeine, TSA) in the experiments in this example are not added before transfection, but are instead added only after transfection, during the recovery period.
The means of introducing oligonucleotide into the target cells also differs from previous examples, with transfection in the presence of the transfection enhancing agent FuGENE™ 6 (FG) (Roche Diagnostics Corp., Indianapolis, Ind., USA) being used rather than electroporation. Each transfection reaction includes 100 μl of target cells and 12 μl of FG unless otherwise indicated, despite the fact that FG is not explicitly listed for each datapoint in the relevant figures. Otherwise the procedures used in the DLD-1-1 experiments and the Fabry's experiments are similar.
The results of a further series of experiments are shown at FIG. 15D, where the data are presented as GLA activity as nanomolar (nM) concentration of the product of the GLA assay generated per hour per unit protein concentration (as are the data in FIGS. D and E).

[3] = tested on: mutant eGFP gene in DLD-1-1 cells; test: eGFP gene correction (oligonucleotide-directed sequence alteration) in DLD-1-1 cells, FACS readout; format: cell-based
Protocol: Cell line and culture conditions: DLD-1 cells are obtained from ATCC (American Type Cell Culture, Manassas, Va.). DLD-1 integrated clone 1 (DLD-1-1) is obtained by integration of the vector pEGFP-N3 containing a single point mutation (TAG) in the eGFP gene, as described in copending U.S. patent application Ser. No. 10/986,418, filed Nov. 10, 2004 (“Mammalian Cell Lines for Detecting, Monitoring, and Optimizing Oligonucleotide-Mediated Chromosomal Sequence Alteration”). Cells are grown in RPMI 1640 medium with 2 mM glutamine, 4.5 g/L glucose, 10 mM HEPES, 1 mM sodium pyruvate and supplemented with 10% FBS. Cells are maintained at 5% CO2, 37° C. and under selection in 200 μg/ml G418 (Gibco, Invitrogen Co., Carlsbad, Calif.).
eGFP gene correction: Cells grown in complete medium supplemented with 10% FBS are trypsinized and harvested by centrifugation. The cell pellet is resuspended in serum-free medium at a density of 1×10^6 cells/100 μl and transferred to a 4 mm gap cuvette (Fisher Scientific, Pittsburgh, Pa.). The oligonucleotide is then added at a concentration of 4 μM and the cells are electroporated (LV, 250V, 13 msec, 2 pulses, 1 second interval) using a BTX ECM830 apparatus (BTX, Holliston, Mass.). The cells are then transferred to a 60 mm dish containing fresh medium supplemented with 10% FBS and incubated for 48 hrs at 37° C. before harvesting for FACS analysis.
The percentage of converted cells in a whole population is then calculated by CellQuest™ (Becton Dickinson) and GFP/PI programs. The correction efficiency is determined by dividing the number of eGFP positive cells by the number of cells analyzed in each experiment (usually 50,000 cells). Each clone is tested three times to determine the standard deviation of the correction efficiency, with standard deviation calculated using Microsoft Excel.
The experimental strategy involves the introduction of oligonucleotides into DLD-1-clone 1 cells by electroporation followed by phenotypic readout of the corrected eGFP gene, 48 hours later. The correcting oligonucleotide (EGFP3S/72NT) is 72 bases in length (72-mer), complementary to the non-transcribed strand of the mutant eGFP gene but designed to create a single mismatch in the third base of codon 67 (see FIG. 1A). It directs conversion of a TAG→TAC codon which enables phenotypic expression of eGFP, which can be detected by FACS. FIG. 1B outlines the sequence of the target gene, the 72-mer and a nonspecific 74-mer used as a control.
Oligonucleotide-Directed Sequence Alteration: The resulting synchronized populations of cells, and asynchronous controls, are grown in complete medium supplemented with 10% FBS and trypsinzed and harvested by centrifugation at 1500 rpm for 5 minutes. The cell pellet is resuspended in fresh serum-free medium at a density of 2×10^6 cells/100 μl. The entire cell suspension is mixed with 20 μg of EGFP/72NT and transferred into a 4 mm gap cuvette (Fisher Scientific, Pittsburgh, Pa., USA) followed by electroporation with two 250V pulses, each 13 ms in duration, with one second between pulses, unipolar.
Cells are incubated at room temperature for 30 min. […] Frequency of converted cells are calculated by CellQuest™ and GFP/PI programs.
Double Thymidine Block: Cells are synchronized in G1 or at the G1/S border by a double thymidine block. Twenty-four hours prior to the addition of any agent (HU, etc.), cells are plated at a density of 0.5×10^6 cells per 100 mm dish, followed by incubation in 2 mM thymidine (Sigma) for 16 hrs, washed and released in fresh medium for 10 hrs, then incubated in 2 mM thymidine for an additional 15 hrs.
FACS is then used to analyze 50,000 cells from each population to determine the percentage of cells expressing functional eGFP, as described in Example 1.

Compound: Cn1c(=O)c2c(ncn2C)n(C)c1=O [caffeine]
- reduction of the level of HR [1]: 60-90%
- effect on GLA activity ([2]; synchronized cells treated with 0.3 mM HU, 4 mM caffeine during recovery period): modest effect on GLA activity
- effect on ddC-enhanced GLA activity ([2]; synchronized cells, 500 μM ddC, 4 mM caffeine or 100 ng/ml TSA during recovery period): eliminate the ability of 500 μM ddC to enhance GLA activity
- effect on correction efficiency, recovery phase ([3]; 4 mM caffeine after electroporation, up to 48 hrs): dramatically increases correction efficiency; also recorded: stimulates correction; also recorded: the greater the enhancement of correction efficiency
- effect on MMS-enhanced correction ([3]; 4 mM caffeine in addition to 0.2 μM MMS): completely suppressing the enhancement otherwise caused by MMS
- effect on correction efficiency ([3]; 4 mM caffeine pre-treatment, with or without 0.2 μM MMS): lower than the control experiment; also recorded: ineffective at increasing the efficiency of gene repair
- effect on correction efficiency, pretreatment ([3]; 4 mM caffeine prior to electroporation): decreases correction efficiency; also recorded: inhibits oligonucleotide-directed gene correction; also recorded: reduction in basal repair levels
- correction levels ([3]; caffeine added to ddC-treated cells, pretreatment (FIG. 20)): 0.6%
- effect on ddC-stimulated gene repair ([3]; inhibitor added with ddC before electroporation (FIG. 20)): blocks the stimulation in gene repair caused by ddC treatment; also recorded: knocks down correction induced by ddC

— US20070072815A1, “Methods and kits to increase the efficiency of oligonucleotide-directed nucleic acid sequence alteration” (priority 2004, published 2007)
